From US4199501A, “Peptides related to somatostatin” (Eli Lilly and Company, priority 1978, dated 1980)

Columns and labels:
serum insulin = experiment: Insulin Inhibition In Dogs (L-alanine infusion, serum insulin by radioimmunoassay); format: in vivo, dog
Protocol: (§1) B. Insulin and Glucagon Inhibition In Dogs:
(§2) A normal dog is fasted overnight. An intravenous (I.V.) infusion of the test compound (dissolved in saline) is begun. Thirty minutes thereafter an additional infusion of L-alanine (dissolved in saline) is begun and is continued for a total of 15 minutes so that a total dose of about 1 mmole of L-alanine per kg. body weight is given. Infusion of the test compound is continued for an additional 15 minute period.
(§3) Blood samples are taken periodically before (at -20, -10 and -1 minutes) and after (5, 10, 15, 30, 35, 40, 45, 50, 60, 90, 120 and 150 minutes) the start of the infusion of the test compound. The serum insulin and serum glucagon concentrations in the blood are determined by radioimmunoassay. A plot is made of the glucagon and insulin concentrations versus time. The plot obtained from the test compound is compared to plots obtained from somatostatin and saline (controls) in similar experiments.
(§4) Infusion of L-alanine (in the absence of somatostatin or active test compound) causes an abrupt increase in serum insulin and glucagon concentrations. The concentrations return to basal levels after the L-alanine infusion is terminated.

[1] = system: growth hormone (GH) secretion; experiment: Growth Hormone Inhibition In Rats (pentobarbital-stimulated GH secretion, serum GH by radioimmunoassay); format: in vivo; parameters: Serum Growth Hormone Conc. Mean ± SEM: unit not given here; conditions: male rats; for % Inhibition of GH release (as compared to saline controls): 20 minutes; for Serum Growth Hormone Conc. Mean ± SEM: with sodium pentobarbital 4 mg/rat I.P., blood 20 minutes later
Protocol: A. Growth Hormone Inhibition In Rats:
This test is a modification of the method of P. Brazeau et al. Endocrinology, 94, 184 (1974). Male rats (weighing 100-110 g.) are divided into three groups of eight rats each. Each rat is administered sodium pentobarbital at a dose of 4 mg/rat (I.P.) to stimulate growth hormone (GH) secretion. Simultaneously, one group of rats receives the test compound (S.C.); the second group receives somatostatin (S.C.); and the third group (control) receives saline (S.C.). Twenty-minutes later, the animals are decapitated and blood samples are collected. The serum concentration of growth hormone (GH) is determined by radioimmunoassay. The mean GH concentration (± standard error of the mean) is calculated for each group. The percent inhibition of GH release (as compared to saline controls) is then calculated for the test compound and for somatostatin. When tested as above-described, the peptide of Example 4, (D-Ala^2, D-Ala^5, Cha^6, D-Trp^8, D-Val^10 -somatastatin) representative of the peptides of Formula III, gave the results set forth below in Table I: […]

serum glucagon = experiment: Glucagon Inhibition In Dogs (L-alanine infusion, serum glucagon by radioimmunoassay); format: in vivo, dog
Protocol: as §1, §2, §3, §4

[2] = dog, I.V. infusion alone (no L-alanine)
[3] = dog, I.V. infusion in the presence of L-alanine
[4] = normal fasted dog, I.V. infusion at doses of 0.195 and 0.230 μg/Kg/min, L-alanine infusion

Molecule: C[C@H](N)C(=O)NCC(=O)N[C@H]1CSSC[C@@H](C(=O)O)NC(=O)[C@H](CO)NC(=O)[C@H]([C@@H](C)O)NC(=O)[C@H](Cc2ccccc2)NC(=O)[C@H]([C@@H](C)O)NC(=O)[C@H](CCCCN)NC(=O)[C@H](Cc2c[nH]c3ccccc23)NC(=O)[C@H](Cc2ccccc2)NC(=O)[C@H](Cc2ccccc2)NC(=O)[C@H](CC(N)=O)NC(=O)[C@H](CCCCN)NC1=O [Somatostatin]
- effect on basal serum concentration of insulin (serum insulin; [2]): causes a decrease
- effect on increase in insulin concentration induced by L-alanine (serum insulin; [3]): inhibits the increase
- % Inhibition of GH release (as compared to saline controls) ([1]; dose 2 (mg/kg) S.C.): 22%
- % Inhibition of GH release (as compared to saline controls) ([1]; dose 50 (mg/kg) S.C.): 64%
- effect on basal serum concentration of glucagon (serum glucagon; [2]): causes a decrease
- effect on increase in glucagon concentration induced by L-alanine (serum glucagon; [3]): inhibits the increase

Molecule: L-Alanyl-D-alanyl-L-cysteinyl-L-lysyl-D-alanyl-L-cyclohexylalanyl-L-phenylalanyl-D-tryptophyl-L-lysyl-D-valyl-L-phenylalanyl-L-threonyl-L-seryl-L-cysteine cyclic (3->14) disulfide [Example 4]
- inhibition of insulin concentration (serum insulin; [4]): no significant inhibition
- % Inhibition of GH release (as compared to saline controls) ([1]; dose 2 (mg/kg) S.C.): 36%
- Serum Growth Hormone Conc. Mean ± SEM ([1]; dose 2 (mg/kg) S.C.): 71.6 ± 29.5
- % Inhibition of GH release (as compared to saline controls) ([1]; dose 50 (mg/kg) S.C.): 73%
- Serum Growth Hormone Conc. Mean ± SEM ([1]; dose 50 (mg/kg) S.C.): 29.8 ± 18.6
- inhibition of glucagon concentration (serum glucagon; [4]): no significant inhibition
